This experiment deals with T1, viral kinase pUL-97 (Human cytomegalovirus, UniProt P16788).
T1 construct: The pUL-97 gene was cloned into a baculovirus vector; GST (glutathione S-transferase) (N); made in house; host or cells: Sf9 insect cells, baculovirus
The experiment is described as follows: UL97 kinase assay on Immobilon plate. The class given is biochemical. The conditions noted are these: inhibition of UL 97 kinase activity, read-out: Activity Class [A, B, C]. The gist of the method:
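GST-pUL97 from baculovirus-infected Sf9 cells phosphorylated myelin basic protein with ATP (3 μM in the added assay buffer) and γ-[33P]ATP in Tris-HCl pH 7.5 buffer with MnCl2 and DTT. Reaction ran 1 h at 30 °C with graded compound concentrations and was stopped with EDTA. 33P incorporation was measured by scintillation after filter capture and phosphoric acid washes.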

The mark [1] stands for this setting: class by IC50 / % inhibition at 10 μM or 100 μM.
[2] abbreviates: class by IC50 / % inhibition at 10 or 100 μM.

Read-outs that look alike come from different tables or passages of the source.

T1 sequence (P16788 whole entry): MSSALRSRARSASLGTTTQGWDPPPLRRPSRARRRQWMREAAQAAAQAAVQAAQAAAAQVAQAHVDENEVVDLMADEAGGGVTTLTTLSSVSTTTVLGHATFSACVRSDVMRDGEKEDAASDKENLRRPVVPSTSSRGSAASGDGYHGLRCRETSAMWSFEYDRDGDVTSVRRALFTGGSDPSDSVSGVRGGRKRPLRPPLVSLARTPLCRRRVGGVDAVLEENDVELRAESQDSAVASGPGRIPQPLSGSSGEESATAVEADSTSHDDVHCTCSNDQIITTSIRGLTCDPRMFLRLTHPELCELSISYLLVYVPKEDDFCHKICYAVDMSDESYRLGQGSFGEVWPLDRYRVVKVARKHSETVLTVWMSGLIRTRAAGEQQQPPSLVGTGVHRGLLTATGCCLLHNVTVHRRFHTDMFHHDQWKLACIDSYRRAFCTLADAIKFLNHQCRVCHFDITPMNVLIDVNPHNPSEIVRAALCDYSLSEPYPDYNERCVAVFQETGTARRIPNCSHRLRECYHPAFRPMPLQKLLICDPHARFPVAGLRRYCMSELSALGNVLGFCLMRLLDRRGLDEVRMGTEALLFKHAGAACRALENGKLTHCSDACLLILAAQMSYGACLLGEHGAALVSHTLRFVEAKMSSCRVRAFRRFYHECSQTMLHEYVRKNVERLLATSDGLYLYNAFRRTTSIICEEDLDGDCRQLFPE

On to `Cc1ccc(N2CCN(c3cncc(-c4ccc(C(F)(F)F)cc4)n3)CC2)c(C)c1` [compound 354, 4-(2,4-Dimethyl-phenyl)-6′-(4-trifluoromethyl-phenyl)-3,4,5,6-tetrahydro-2H-[1,2′]bipyrazinyl], for which, under setting [1], the IC50 was in the range of 10 to 100 µM. For the compound `FC(F)(F)c1ccc(-c2cncc(N3CCN(c4ccccc4)CC3)n2)cc1` [compound 193, 4-Phenyl-6′-(4-trifluoromethyl-phenyl)-3,4,5,6-tetrahydro-2H-[1,2′]bipyrazinyl], the IC50 under setting [2] is 1 to 10 µM. The same measure, in the same setting: under `Clc1ccc(-c2cncc(NCc3ccccc3)n2)cc1` [compound 27, Benzyl-[6-(4-chloro-phenyl)-pyrazin-2-yl]-amine] stands 10 to 100 µM. Consider `COc1ccc(N2CCN(c3cncc(-c4ccsc4)n3)CC2)cc1OC` [compound 261, 4-(3,4-Dimethoxy-phenyl)-6′-thiophen-3-yl-3,4,5,6-tetrahydro-2H-[1,2′]bipyrazinyl], for which, under setting [1], the IC50 fell in the range of 1 to 10 µM. Turning to `NC(=O)c1cccc(-c2cncc(N3CCN(c4ccncc4)CC3)n2)c1` [Comp. 71, 3-(4-Pyridin-4-yl-3,4,5,6-tetrahydro-2H-[1,2′]bipyrazinyl-6′-yl)-benzamide], the IC50 under setting [2] lay in the range of 1 to 10 µM.

As to `COc1ccccc1N1CCN(c2cncc(-c3ccoc3)n2)CC1` [compound 90, 6′-Furan-3-yl-4-(2-methoxy-phenyl)-3,4,5,6-tetrahydro-2H-[1,2′]bipyrazinyl], the IC50 under setting [2] lay in the range of 1 to 10 µM. The same measure, in the same setting: under `CC(=O)c1ccc(-c2cncc(N3CCN(c4cccc(Cl)c4)CC3)n2)cc1` [compound 103, 1-{4-[4-(3-Chloro-phenyl)-3,4,5,6-tetrahydro-2H-[1,2′]bipyrazinyl-6′-yl]-phenyl}-ethanone] stands 1 to 10 µM.

Consider `Fc1ccccc1N1CCN(c2cncc(-c3csc4ccccc34)n2)CC1` [compound 251, 6′-Benzo[b]thiophen-3-yl-4-(2-fluoro-phenyl)-3,4,5,6-tetrahydro-2H-[1,2′]bipyrazinyl], for which the IC50 under setting [1] lay in the range of 10 to 100 µM.

As for `CN(C)c1ccc(-c2cncc(N3CCN(c4ccc(Cl)c(Cl)c4)CC3)n2)cc1` [compound 357, {4-[4-(3,4-Dichloro-phenyl)-3,4,5,6-tetrahydro-2H-[1,2′]bipyrazinyl-6′-yl]-phenyl}-dimethyl-amine], the IC50 under setting [1] is 10 to 100 µM. The same measure, in the same setting: the value for `COc1ccc(N2CCN(c3cncc(-c4ccccc4CO)n3)CC2)cc1OC` [compound 264, {2-[4-(3,4-Dimethoxy-phenyl)-3,4,5,6-tetrahydro-2H-[1,2′]bipyrazinyl-6′-yl]-phenyl}-methanol] was 10 to 100 µM; that for `COc1cccc(N2CCN(c3cncc(-c4ccc(C(N)=O)cc4)n3)CC2)c1` [compound 364, 4-[4-(3-Methoxy-phenyl)-3,4,5,6-tetrahydro-2H-[1,2′]bipyrazinyl-6′-yl]-benzamide] was 1 to 10 µM; that for `COc1ccc(-c2cncc(N3CCN(c4ccc(C)cc4C)CC3)n2)cc1OC` [compound 288] was 10 to 100 µM. As to `Cc1cc(C)cc(-c2cncc(N3CCN(c4ccccc4)CC3)n2)c1` [compound 192, 6′-(3,5-Dimethyl-phenyl)-4-phenyl-3,4,5,6-tetrahydro-2H-[1,2′]bipyrazinyl], the IC50 under setting [2] fell in the range of 10 to 100 µM.

With `COc1ccc(N2CCN(c3cncc(-c4ccccc4Oc4ccccc4)n3)CC2)cc1OC` [compound 174, 4-(3,4-Dimethoxy-phenyl)-6′-(2-phenoxy-phenyl)-3,4,5,6-tetrahydro-2H-[1,2′]bipyrazinyl], the IC50 under setting [2] lay within 10 to 100 µM. For `FC(F)(F)c1ccc(N2CCN(c3cncc(-c4ccc5ccccc5c4)n3)CC2)cc1` [compound 352, 6′-Naphthalen-2-yl-4-(4-trifluoromethyl-phenyl)-3,4,5,6-tetrahydro-2H-[1,2′]bipyrazinyl], the IC50 under setting [1] was 1 to 10 µM. Turning to `NC(=O)c1ccc(-c2cncc(NCc3ccccc3)n2)cc1` [compound 28, 4-(6-Benzylamino-pyrazin-2-yl)-benzamide], the IC50 under setting [2] is below 1 µM. For `COc1ccc(N2CCN(c3cncc(-c4cccc(C)c4)n3)CC2)cc1OC` [compound 223, 4-(3,4-Dimethoxy-phenyl)-6′-m-tolyl-3,4,5,6-tetrahydro-2H-[1,2′]bipyrazinyl], the IC50 under setting [1] was in the range of 1 to 10 µM. With “6′-(4-Methylsulfanyl-phenyl)-4-pyridin-4-yl-3,4,5,6-tetrahydro-2H-[1,2′]bipyrazinyl [compound 66]”, the IC50 under setting [2] was 1 to 10 µM.

As for `Fc1ccc(N2CCN(c3cncc(-c4ccoc4)n3)CC2)cc1` [compound 270, 4-(4-Fluoro-phenyl)-6′-furan-3-yl-3,4,5,6-tetrahydro-2H-[1,2′]bipyrazinyl], the IC50 under setting [1] lay in the range of 10 to 100 µM. Take `c1ccc(-c2cncc(N3CCN(c4ccccc4)CC3)n2)cc1` [compound 109, 4,6′-Diphenyl-3,4,5,6-tetrahydro-2H-[1,2′]bipyrazinyl]: the IC50 under setting [2] was in the range of 1 to 10 µM.

On to `CSc1ccc(-c2cncc(N3CCN(c4ccc(F)cc4)CC3)n2)cc1` [compound 140, 4-(4-Fluoro-phenyl)-6′-(4-methylsulfanyl-phenyl)-3,4,5,6-tetrahydro-2H-[1,2′]bipyrazinyl], for which the IC50 under setting [2] lay within 1 to 10 µM.

On to `CC(=O)c1ccccc1-c1cncc(N2CCN(c3cccc(C(F)(F)F)c3)CC2)n1` [compound 153, 1-{2-[4-(3-Trifluoromethyl-phenyl)-3,4,5,6-tetrahydro-2H-[1,2′]bipyrazinyl-6′-yl]-phenyl}-ethanone], for which the IC50 under setting [2] lay in the range of 10 to 100 µM.

`Cc1cc(C)cc(-c2cncc(N3CCN(c4cccc(C)c4)C(C)C3)n2)c1` (stereo not drawn) [compound 339, 6′-(3,5-Dimethyl-phenyl)-3-methyl-4-m-tolyl-3,4,5,6-tetrahydro-2H-[1,2′]bipyrazinyl]: under setting [1], the IC50 lay in the range of 10 to 100 µM. On to `COc1ccc(C(C)C)cc1-c1cncc(N2CCN(c3ccncc3)CC2)n1` [compound 55, 6′-(5-Isopropyl-2-methoxy-phenyl)-4-pyridin-4-yl-3,4,5,6-tetrahydro-2H-[1,2′]bipyrazinyl], for which the IC50 under setting [2] fell in the range of 10 to 100 µM.

With `Cc1cc(C)cc(-c2cncc(N3CCN(c4ccc(Cl)c(Cl)c4)CC3)n2)c1` [compound 358, 4-(3,4-Dichloro-phenyl)-6′-(3,5-dimethyl-phenyl)-3,4,5,6-tetrahydro-2H-[1,2′]bipyrazinyl], the IC50 under setting [1] is 10 to 100 µM.

Take `Cc1ccc(-c2cncc(N3CCN(c4ccccc4F)CC3)n2)cc1` [compound 248, 4-(2-Fluoro-phenyl)-6′-p-tolyl-3,4,5,6-tetrahydro-2H-[1,2′]bipyrazinyl]: under setting [1], the IC50 fell in the range of 10 to 100 µM.

On to `CSc1ccc(-c2cncc(N3CCN(c4cccc(C)c4)C(C)C3)n2)cc1` (stereo not drawn) [compound 301, 3-Methyl-6′-(4-methylsulfanyl-phenyl)-4-m-tolyl-3,4,5,6-tetrahydro-2H-[1,2′]bipyrazinyl], for which, under setting [1], the IC50 fell in the range of 10 to 100 µM. Take `Fc1ccc(-c2cncc(NCc3ccco3)n2)c(F)c1` [compound 48, [6-(2,4-Difluoro-phenyl)-pyrazin-2-yl]-furan-2-ylmethyl-amine]: the IC50 under setting [2] fell in the range of 1 to 10 µM. Same read-out and setting: under `Fc1cc(-c2cncc(N3CCN(c4ccccc4F)CC3)n2)ccc1-c1ccccc1` [compound 128, 6′-(2-Fluoro-biphenyl-4-yl)-4-(2-fluoro-phenyl)-3,4,5,6-tetrahydro-2H-[1,2′]bipyrazinyl] stands 10 to 100 µM. For the compound `COc1ccc(N2CCN(c3cncc(-c4ccc(C#N)cc4)n3)CC2)cc1` [compound 293, 4-[4-(4-Methoxy-phenyl)-3,4,5,6-tetrahydro-2H-[1,2′]bipyrazinyl-6′-yl]-benzonitrile], the IC50 under setting [1] is 1 to 10 µM.

For the origin of these results see patent US20080194574A1, “Pyrazine Derivatives As Effective Compounds Against Infectious Diseases” (AXXIMA PHARMACEUTICALS AG, priority 2003, published 2008).
